Common to all, as to assay type: cell-based
In one series the test system is J-Lat cells. In words: J-Lat cells, percentage of GFP-positive cells by cytometry. The conditions noted are these: 24 h, compound alone. The method, then:
The J-Lat were grown in RPMI 1640 medium (Gibco-BRL) supplemented with 10% fetal bovine serum, 50 U/ml of penicillin, […] of streptomycin at 37 uC in a humidified 95% air/5% CO2 atmosphere. The cells were plated at 5.105 cells in a 96 well-plate. TNF ? was purchased from Immunosource. SAHA (suberoylanilide hydroxamic acid), prostratin (12-deoxyphorbol-13-acetate) and vorinostat were obtained from Sigma-Aldrich. The J-Lat cells were treated for 24 h with the different compounds alone. The cells were washed twice in PBS, re-suspended in PBS containing 4% paraformaldehyde and fixed for 30 min. Cells were next washed and re-suspended in PBS. The percentage of GFP-positive cells was measured with a LSRFortessa cytometer (Becton-Dickinson) using FACSDiva Version 6.1.3 according to the manufacturer's instructions.
The results for the J-Lat cells experiments are expressed as a percentage of the living fluorescent cells. In this model, some slight increase of viral production measured by fluorescence are quantified (table 1).

The subject of series [1] is wild type NL4-3 virus (HIV-1) in HeLa-p4 cells. In words: HeLa-p4 single-cycle HIV-1 infectivity, beta-galactosidase CPRG test. The following applies: Human immunodeficiency virus 1, NL43, HeLaP4, 48 hours after infection, control = NL4-3 virus alone; for activity at 50 µM: read-out: Hela-p4 CPRG 50 μM; for activity at 100 µM: read-out: Hela-p4 CPRG 100 μM. Here is the method: (§1) HeLa-p4 cells are HeLa CD4 LTR-LacZ wherein LacZ expression is induced by the trans-activating protein Tat of HIV, making possible the precise quantification of HIV-1 infectivity from a single replication cycle. HeLa-CD4 cells growing exponentially at a density of 1×10^4/mL were placed in 96-well plates and infected the following day with 1 ng of HIV p24 antigen in the presence of different concentrations of compounds. The titles for a single cycle of the viruses were determined 48 hours after infection by quantifying the beta-galactosidase activity in lysates P4 by colorimetric test (CPRG, Promega) based on the cleavage of chlorophenol red-beta-D-galactopyranoside (CPRG) by beta-galactosidase. A cell viability assay measuring the absorbance at […] using the yellow tetrazolium reagent MTS [[…]] (Promega) was carried out.
(§2) For the helap4 cells experiments, the efficacy of the compounds is determined in comparison with control cells containing wild type NL4-3 virus alone (i.e. without any added compound) and is expressed as percentage of control. Then, the viral replication was increased for several compounds at the 50 and 100 μM concentrations with an absence of cytotoxic effects at the same concentrations (MTS test) (table 1).

For a further series, the system named is HeLa-p4 cells. In words: Cell viability assay (MTS) on HeLa-p4 cells. The conditions noted are these: cell viability. Here is the method:
as §1, §2

For the compound `COc1cc(N2C[C@H](N)C[C@H](N)C2)cc(OC)c1OC` [AB-116, (3S,5R)-1-(3,4,5-trimethoxyphenyl)piperidine-3,5-diamine], in the series on J-Lat cells, the “J-lat 50 μM” value is reported as 0 percentage of the living fluorescent cells and the “J-lat 100 μM” value is 0.5 percentage of the living fluorescent cells. In series [1], the activity at 50 µM stood at 135%, the activity at 100 µM is 172% and the activity at 200 µM came out at 248%. In the series with HeLa-p4 cells, the “Hela-p4 MTS 50 μM” value worked out at 96, the “Hela-p4 MTS 100 μM” value was 97 and the “Hela-p4 MTS 200 μM” value was determined as 86.
For the compound `N[C@@H]1C[C@H](N)CN(c2ccc(NC(=O)c3ccccc3)c(O)c2)C1` [AB-120, N-(4-((3S,5R)-3,5-diaminopiperidin-1-yl)-2-hydroxyphenyl)benzamide], in the series with J-Lat cells, the “J-lat 50 μM” value is reported as 0.1 percentage of the living fluorescent cells and the “J-lat 100 μM” value was 12.3 percentage of the living fluorescent cells. In series [1], the activity at 50 µM was 144%, the activity at 100 µM amounted to 230% and the activity at 200 µM amounted to 215%. In addition, in the series on HeLa-p4 cells, the “Hela-p4 MTS 50 μM” value came out at 94, the “Hela-p4 MTS 100 μM” value is on record as 90 and the “Hela-p4 MTS 200 μM” value came to 55.
`COc1ccc(CN2C[C@H](N)C[C@H](N)C2)cc1` [AB-378, (3S,5R)-1-(4-methoxybenzyl)piperidine-3,5-diamine]: in the series on J-Lat cells, the “J-lat 50 μM” value is reported as 0.2 percentage of the living fluorescent cells and the “J-lat 100 μM” value was 1.7 percentage of the living fluorescent cells. Also, in series [1], the activity at 50 µM worked out at 169%, the activity at 100 µM amounted to 199% and the activity at 200 µM is 312%. In the series on HeLa-p4 cells, the “Hela-p4 MTS 50 μM” value is 98, the “Hela-p4 MTS 100 μM” value is given as 94 and the “Hela-p4 MTS 200 μM” value turned out to be 72.
In the case of `COc1cccc(CCN2C[C@H](N)C[C@H](N)C2)c1` [ECO01-026-C2, 1-(3-methoxyphenethyl)piperidine-3,5-diamine], the “J-lat 50 μM” value with J-Lat cells is reported as 3.3 percentage of the living fluorescent cells. In series [1], the activity at 50 µM stood at 116%, the activity at 100 µM was 169% and the activity at 200 µM was found to be 234%. In the series on HeLa-p4 cells, the “Hela-p4 MTS 50 μM” value is reported as 106, the “Hela-p4 MTS 100 μM” value turned out to be 98 and the “Hela-p4 MTS 200 μM” value is 72.
Regarding `Cc1ccccc1CCN1C[C@H](N)C[C@H](N)C1` [ECO01-028-C, 1-(2-methylphenethyl)piperidine-3,5-diamine], in the series with J-Lat cells, the “J-lat 50 μM” value was 0.1 percentage of the living fluorescent cells and the “J-lat 100 μM” value is 0 percentage of the living fluorescent cells. Besides, in series [1], the activity at 50 µM was determined as 108% and the activity at 100 µM amounted to 113%. Besides, in the series on HeLa-p4 cells, the “Hela-p4 MTS 50 μM” value was found to be 91 and the “Hela-p4 MTS 100 μM” value came to 94.
In the case of `Cc1ccc(CCN2C[C@H](N)C[C@H](N)C2)cc1` [ECO01-029-C, 1-(4-methylphenethyl)piperidine-3,5-diamine], in the series on J-Lat cells, the “J-lat 50 μM” value is listed as 0.1 percentage of the living fluorescent cells and the “J-lat 100 μM” value is 15.8 percentage of the living fluorescent cells. Besides, in series [1], the activity at 50 µM is 126% and the activity at 100 µM was determined as 109%. In addition, in the series on HeLa-p4 cells, the “Hela-p4 MTS 50 μM” value is 94 and the “Hela-p4 MTS 100 μM” value is recorded as 89.
`Cc1cccc(CCN2C[C@H](N)C[C@H](N)C2)c1` [ECO01-030-C, 1-(3-methylphenethyl)piperidine-3,5-diamine]: in the series on J-Lat cells, the “J-lat 50 μM” value is recorded as 0.1 percentage of the living fluorescent cells and the “J-lat 100 μM” value is 0 percentage of the living fluorescent cells. Besides, in series [1], the activity at 50 µM is 125% and the activity at 100 µM was found to be 103%. Moreover, in the series on HeLa-p4 cells, the “Hela-p4 MTS 50 μM” value is listed as 84 and the “Hela-p4 MTS 100 μM” value is listed as 82.
For `COc1ccccc1CCN1C[C@H](N)C[C@H](N)C1` [ECO01-031-C, 1-(2-methoxyphenethyl)piperidine-3,5-diamine], in the series on J-Lat cells, the “J-lat 50 μM” value is reported as 0.1 percentage of the living fluorescent cells and the “J-lat 100 μM” value is listed as 4.8 percentage of the living fluorescent cells. In addition, in series [1], the activity at 50 µM turned out to be 88% and the activity at 100 µM was found to be 108%. Also, in the series on HeLa-p4 cells, the “Hela-p4 MTS 50 μM” value worked out at 88 and the “Hela-p4 MTS 100 μM” value amounted to 82.
On to `N[C@@H]1C[C@H](N)CN(CCc2ccc3c(c2)OCO3)C1` [ECO01-033-C, 1-(2-(benzo[d][1,3]dioxol-5-yl)ethyl)piperidine-3,5-diamine], for which, in the series with J-Lat cells, the “J-lat 50 μM” value was 0.1 percentage of the living fluorescent cells and the “J-lat 100 μM” value is listed as 0.2 percentage of the living fluorescent cells. Also, in series [1], the activity at 50 µM turned out to be 103% and the activity at 100 µM worked out at 146%. In addition, in the series on HeLa-p4 cells, the “Hela-p4 MTS 50 μM” value stood at 97 and the “Hela-p4 MTS 100 μM” value amounted to 94.
`N[C@@H]1C[C@H](N)CN(CCCc2ccccc2)C1` [ECO01-035-C, 1-(3-phenylpropyl)piperidine-3,5-diamine]: in the series with J-Lat cells, the “J-lat 50 μM” value is recorded as 1.5 percentage of the living fluorescent cells and the “J-lat 100 μM” value was 2.8 percentage of the living fluorescent cells. Further, in series [1], the activity at 50 µM turned out to be 169% and the activity at 100 µM was determined as 147%. Moreover, in the series on HeLa-p4 cells, the “Hela-p4 MTS 50 μM” value is 105 and the “Hela-p4 MTS 100 μM” value is 88.
Turning to `N[C@@H]1C[C@H](N)CN(c2ccccc2)C1` [ECO01-037-C, 1-phenylpiperidine-3,5-diamine], in the series with J-Lat cells, the “J-lat 50 μM” value is given as 0.6 percentage of the living fluorescent cells and the “J-lat 100 μM” value is listed as 0.2 percentage of the living fluorescent cells. Also, in series [1], the activity at 50 µM stood at 103% and the activity at 100 µM was 103%. Also, in the series with HeLa-p4 cells, the “Hela-p4 MTS 50 μM” value was 97 and the “Hela-p4 MTS 100 μM” value came out at 106.
With `CS(=O)(=O)c1ccc(CCN2C[C@H](N)C[C@H](N)C2)cc1` [ECO01-039-C, 1-(4-(methylsulfonyl)phenethyl)piperidine-3,5-diamine], in the series with J-Lat cells, the “J-lat 50 μM” value is 0.1 percentage of the living fluorescent cells and the “J-lat 100 μM” value is 0.1 percentage of the living fluorescent cells. Also, in series [1], the activity at 50 µM amounted to 164% and the activity at 100 µM amounted to 168%. In the series on HeLa-p4 cells, the “Hela-p4 MTS 50 μM” value stood at 95 and the “Hela-p4 MTS 100 μM” value came out at 108.
In the case of `N[C@@H]1C[C@H](N)CN(C2Cc3ccccc3C2)C1` [ECO01-041-C, 1-(2,3-dihydro-1H-inden-2-yl)piperidine-3,5-diamine], in the series on J-Lat cells, the “J-lat 50 μM” value is recorded as 1.0 percentage of the living fluorescent cells and the “J-lat 100 μM” value is listed as 0.1 percentage of the living fluorescent cells. Moreover, in series [1], the activity at 50 µM is 114% and the activity at 100 µM stood at 131%. Further, in the series with HeLa-p4 cells, the “Hela-p4 MTS 50 μM” value was found to be 98 and the “Hela-p4 MTS 100 μM” value is listed as 84.
Consider `N[C@@H]1C[C@H](N)CN(c2ccc3c(c2)OCO3)C1` [ECO01-042-C], for which, in the series with J-Lat cells, the “J-lat 50 μM” value is 0.2 percentage of the living fluorescent cells and the “J-lat 100 μM” value is 0.4 percentage of the living fluorescent cells. Moreover, in series [1], the activity at 50 µM came to 146% and the activity at 100 µM was determined as 104%. Moreover, in the series on HeLa-p4 cells, the “Hela-p4 MTS 50 μM” value came to 85 and the “Hela-p4 MTS 100 μM” value came out at 60.
As to `COc1cccc(N2C[C@H](N)C[C@H](N)C2)c1` [ECO01-055-C, 1-(3-methoxyphenyl)piperidine-3,5-diamine], in the series on J-Lat cells, the “J-lat 50 μM” value was 0.4 percentage of the living fluorescent cells and the “J-lat 100 μM” value is recorded as 0.1 percentage of the living fluorescent cells. Moreover, in series [1], the activity at 50 µM turned out to be 111% and the activity at 100 µM is 153%. For the same compound, in the series on HeLa-p4 cells, the “Hela-p4 MTS 50 μM” value is on record as 94 and the “Hela-p4 MTS 100 μM” value was determined as 94.
For the compound `COc1ccc(N2C[C@H](N)C[C@H](N)C2)cc1` [ECO01-056-C, 1-(4-methoxyphenyl)piperidine-3,5-diamine], in the series with J-Lat cells, the “J-lat 50 μM” value is on record as 0.1 percentage of the living fluorescent cells and the “J-lat 100 μM” value was 0.2 percentage of the living fluorescent cells. Further, in series [1], the activity at 50 µM came out at 94% and the activity at 100 µM came to 122%. In the series on HeLa-p4 cells, the “Hela-p4 MTS 50 μM” value is on record as 68 and the “Hela-p4 MTS 100 μM” value is reported as 81.

(Values after patent publication US20170183306A1, “CYCLIC COMPOUNDS HAVING A 1,3 DIAMINO-FUNCTIONALITY FOR USE IN THE TREATMENT OF HIV INFECTION” (Universite Paris Descartes, priority 2014, published 2017).)
